Measurements reported in patent US20140357579A1, “SYNTHETIC PEPTIDE AMIDES AND DIMERS THEREOF” (priority 2006, published 2014).
Read-outs that look alike come from different tables or passages of the source. Bridge positions count the residues as written; N and C are the ends. Square brackets hold non-standard residues; d marks the D form. Side chains are listed from the residue outwards. Peptide text beside a SMILES is read from it. I, II: the chains in the order shown. dAgb = N=C(N)NCC[C@@H](N)C(=O)O; dAgp = N=C(N)NC[C@@H](N)C(=O)O; dNle = CCCC[C@@H](N)C(=O)O; dOrn = NCCC[C@@H](N)C(=O)O; Api = NC1(C(=O)O)CCNCC1; Inp = O=C(O)C1CCNCC1

Legend:
[1] = molecular target: T1, mouse kappa opioid receptor (mKOR) (Mus musculus, UniProt P33534); assay: Inhibition of forskolin-stimulated cAMP production in R1.G1 cells (TR-FRET cAMP immunoassay); type: cell-based; settings: for EC50: inhibition of forskolin-stimulated cAMP
T1 construct: a mouse thymoma cell line that expresses only the kappa-opioid receptor and no other opioid receptor subtype; host or cells: R1.G1 mouse thymoma cells
T1 sequence (P33534 whole entry): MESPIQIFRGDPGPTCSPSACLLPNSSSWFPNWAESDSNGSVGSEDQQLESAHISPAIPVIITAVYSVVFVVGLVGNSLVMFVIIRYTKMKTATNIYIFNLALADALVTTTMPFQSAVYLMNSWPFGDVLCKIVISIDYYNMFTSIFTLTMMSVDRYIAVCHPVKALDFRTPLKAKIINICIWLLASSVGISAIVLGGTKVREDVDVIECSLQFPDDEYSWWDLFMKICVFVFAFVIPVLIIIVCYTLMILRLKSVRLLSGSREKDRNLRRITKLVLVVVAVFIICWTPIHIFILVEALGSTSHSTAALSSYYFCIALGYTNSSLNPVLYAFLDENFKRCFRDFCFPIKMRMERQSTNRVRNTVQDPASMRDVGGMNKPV

[2] = molecular target: T2, human kappa opioid receptor (hKOR) (Homo sapiens, UniProt P41145); assay: NFAT-luciferase reporter assay in HEK-293 cells transfected with human kappa opioid receptor and chimeric G-protein; type: cell-based; settings: for hKOR Efficacy(%) / Emax: percent maximal activation compared to full induction by known kappa agonists; for EC50: transfected HEK-293 cells, luciferase reporter, read-out: hKOR EC50; for Emax: HEK293, read-out: hKOR Efficacy(%)
T2 construct: expressed in transfected cells; host or cells: HEK-293 cells (ATCC), transient transfection with pcDNA3-hOPRK1
T2 sequence (P41145 whole entry): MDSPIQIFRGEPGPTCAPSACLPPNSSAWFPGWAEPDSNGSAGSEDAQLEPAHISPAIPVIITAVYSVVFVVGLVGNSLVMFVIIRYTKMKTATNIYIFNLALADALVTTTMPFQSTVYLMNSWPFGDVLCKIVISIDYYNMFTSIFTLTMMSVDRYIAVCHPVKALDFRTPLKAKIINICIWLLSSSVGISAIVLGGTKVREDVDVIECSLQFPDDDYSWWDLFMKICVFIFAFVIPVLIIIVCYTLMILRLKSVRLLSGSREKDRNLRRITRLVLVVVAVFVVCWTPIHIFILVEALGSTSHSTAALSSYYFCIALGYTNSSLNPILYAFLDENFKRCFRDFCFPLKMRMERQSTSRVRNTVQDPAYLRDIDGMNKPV

[3] = R1.G1 cells, read-out: mKOR Efficacy(%)
[4] = R1.G1 cells, read-out: mKOR EC50
[5] = read-out: mKOR Efficacy(%), R1.G1 cells

Structure (SMILES) | mKOR Efficacy(%) ([1]; R1.G1 cells) | EC50 [2] | also measured
CC(C)C[C@@H](NC(=O)[C@@H](Cc1ccccc1)NC(=O)[C@H](N)Cc1ccccc1)C(=O)N[C@H](CCCN)C(=O)NCCN1CCN(CC(=O)O)CC1 [Compound 1, D-Phe-D-Phe-D-Leu-D-Orn-[4-(2-aminoethyl)-1-carboxymethyl-piperazine]-OH] | 98% | 0.49 nM | hKOR Efficacy(%) [2]: 102%
CC(C)C[C@@H](NC(=O)[C@@H](Cc1ccccc1)NC(=O)[C@H](N)Cc1ccccc1)C(=O)N[C@H](CCCN)C(=O)N1CCC(CC(=O)O)CC1 [Compound 2, D-Phe-D-Phe-D-Leu-D-Orn-[4-Carboxymethyl-piperidine]-OH] | 97% | 0.13 nM | hKOR Efficacy(%) [2]: 99%
CCCC[C@@H](NC(=O)[C@@H](Cc1ccccc1)NC(=O)[C@H](N)Cc1ccccc1)C(=O)N[C@H](CCCNC(=N)N)C(=O)N1CCC[C@@H]1C(=O)O [Compound 3, D-Phe-D-Phe-D-Nle-D-Arg-D-Pro-OH] (H-[dF][dF][dNle][dR][dP]-OH; N-terminus assumed) | 88% |  | 
CC(C)C[C@@H](NC(=O)[C@@H](Cc1ccccc1)NC(=O)[C@H](N)Cc1ccccc1)C(=O)N[C@H](CCCN)C(=O)N[C@@H]1CN[C@H](C(=O)O)C1 [Compound 5, D-Phe-D-Phe-D-Leu-D-Orn-[(2S,4S)-4-Amino-pyrrolidine-2-carboxylic acid]-OH] | 96% |  | 
CC(C)C[C@@H](NC(=O)[C@@H](Cc1ccccc1)NC(=O)[C@H](N)Cc1ccccc1)C(=O)N[C@H](CCCN)C(=O)N1CCC(N)(C(=O)O)CC1 [Compound 6, D-Phe-D-Phe-D-Leu-D-Orn-[omega(4-Aminopiperidine-4-carboxylic acid)]-OH] | 100% | 0.17 nM | hKOR Efficacy(%) [2]: 107%
CC(C)C[C@@H](NC(=O)[C@@H](Cc1ccccc1)NC(=O)[C@H](N)Cc1ccccc1)C(=O)N[C@H](CCCN)C(=O)N1CCC(CC(N)C(=O)O)CC1 (stereo partly drawn) [Compound 7, D-Phe-D-Phe-D-Leu-D-Orn-[ω(D/L-2-Amino-3-(4-N-piperidinyl)propionic acid)]-OH] | 102% | 0.14 nM | hKOR Efficacy(%) [2]: 104%
CC(C)C[C@@H](NC(=O)[C@@H](Cc1ccccc1)NC(=O)[C@H](N)Cc1ccccc1)C(=O)N[C@H](CCCN)C(=O)N1CCNC(C(=O)O)C1 (stereo partly drawn) [Compound 8, D-Phe-D-Phe-D-Leu-D-Orn-[omega(D/L-piperazine-2-carboxylic acid)]-OH] | 102% | 0.16 nM | hKOR Efficacy(%) [2]: 93%
CC(C)C[C@@H](NC(=O)[C@@H](Cc1ccccc1)NC(=O)[C@H](N)Cc1ccccc1)C(=O)N[C@H](CCCN)C(=O)N1CCC(C(=O)O)CC1 [Compound 9, D-Phe-D-Phe-D-Leu-D-Orn-[Isonipecotic acid]-OH] (H-[dF][dF][dL][dOrn][Inp]-OH; N-terminus assumed) | 92% | 0.39 nM | Emax [2]: 134%
CC(C)C[C@@H](NC(=O)[C@@H](Cc1ccccc1)NC(=O)[C@H](N)Cc1ccccc1)C(=O)N[C@H](CCCN)C(=O)N1CCC(N2CCC[C@H]2C(=O)O)CC1 [Compound 10, D-Phe-D-Phe-D-Leu-D-Orn-[N-(4-piperidinyl)-L-proline]-OH] | 99% | 0.12 nM | hKOR Efficacy(%) [2]: 92%
CC(C)C[C@@H](NC(=O)[C@@H](Cc1ccccc1)NC(=O)[C@H](N)Cc1ccccc1)C(=O)N[C@H](CCCN)C(=O)N1CCCNCC1 [Compound 11, D-Phe-D-Phe-D-Leu-D-Orn-[homopiperazine amide]] | 100% | 0.12 nM | Emax [2]: 90%
CC(C)C[C@@H](NC(=O)[C@@H](Cc1ccccc1)NC(=O)[C@H](N)Cc1ccccc1)C(=O)N[C@H](CCCN)C(=O)N1CCC(CCCC(=O)O)CC1 [Compound 12, D-Phe-D-Phe-D-Leu-D-Orn-[4-(4-piperidinyl)-butanoic acid]-OH] | 100% | 0.3 nM | Emax [2]: 99%
CC(C)C[C@@H](NC(=O)[C@@H](Cc1ccccc1)NC(=O)[C@H](N)Cc1ccccc1)C(=O)N[C@H](CCCN)C(=O)NCCN1CCN(CC(N)=O)CC1 [Compound 13, D-Phe-D-Phe-D-Leu-D-Orn-[4-(2-aminoethyl)-1-carboxymethyl-piperazine]-NH2] | 96% |  | hKOR Efficacy(%) [2]: 96%
CC(C)C[C@@H](NC(=O)[C@@H](Cc1ccccc1)NC(=O)[C@H](N)Cc1ccccc1)C(=O)N[C@H](CCCN)C(=O)N1CCC(N2CCC[C@H]2C(N)=O)CC1 [Compound 14, D-Phe-D-Phe-D-Leu-D-Orn-[N-(4-piperidinyl)-L-proline]-NH2] | 96% | 0.21 nM | Emax [2]: 105%
CC(C)C[C@@H](NC(=O)[C@@H](Cc1ccccc1)NC(=O)[C@H](N)Cc1ccccc1)C(=O)N[C@H](CCCN)C(=O)NC1CCN(CC(N)=O)CC1 [Compound 15, D-Phe-D-Phe-D-Leu-D-Orn-[4-Amino-1-carboxymethyl-piperidine]-NH2] | 93% |  | 
CC(C)C[C@@H](NC(=O)[C@@H](Cc1ccccc1)NC(=O)[C@H](N)Cc1ccccc1)C(=O)N[C@H](CCCN)C(=O)N1CCCN(C(=N)N)CC1 [Compound 16, D-Phe-D-Phe-D-Leu-D-Orn-[4-Amidinohomopiperazine amide]] |  | 0.12 nM | Emax [1, 3]: 99%; Emax [2]: 90%
CNCCC[C@@H](NC(=O)[C@@H](CC(C)C)NC(=O)[C@@H](Cc1ccccc1)NC(=O)[C@H](N)Cc1ccccc1)C(=O)N1CCCN(C(=N)N)CC1 [Compound 21, D-Phe-D-Phe-D-Leu-(δ-Me)D-Orn-[4-Amidinohomopiperazine amide]] | 97% |  | 
CC(C)C[C@@H](NC(=O)[C@@H](Cc1ccccc1)NC(=O)[C@H](N)Cc1ccccc1)C(=O)N[C@H](CCCNC(C)C)C(=O)N1CCCN(C(=N)N)CC1 [Compound 22, D-Phe-D-Phe-D-Leu-(δ-iPr)D-Orn-[4-Amidinohomopiperazine amide]] | 97% |  | 
CNCCC[C@@H](NC(=O)[C@@H](CC(C)C)NC(=O)[C@@H](Cc1ccccc1)NC(=O)[C@H](N)Cc1ccccc1)C(=O)N1CCCNCC1 [Compound 23, D-Phe-D-Phe-D-Leu-(-Me)D-Orn-[homopiperazine amide]] | 95% |  | 
CC(C)C[C@@H](NC(=O)[C@@H](Cc1ccccc1)NC(=O)[C@H](N)Cc1ccccc1)C(=O)N[C@H](CCCNC(C)C)C(=O)N1CCCNCC1 [Compound 24, D-Phe-D-Phe-D-Leu-(6-iPr)D-Orn-[homopiperazine amide]] | 96% |  | 
CC(C)C[C@@H](N)C(=O)N[C@H](CCCN)C(=O)N[C@@H](CCCCNC(=O)[C@@H](CCCN)NC(=O)[C@@H](CC(C)C)NC(=O)[C@@H](Cc1ccccc1)NC(=O)[C@H](N)Cc1ccccc1)C(=O)O [Compound 39, D-Phe-D-Phe-D-Leu-D-Orn-[eLys(D-Orn-D-Leu-H)]-OH] |  |  | EC50 [1, 4]: 67.3 nM; Emax [1, 3]: 35%
CC(C)C[C@@H](N)C(=O)N[C@H](CCCN)C(=O)N[C@H](CCCCNC(=O)[C@@H](CCCN)NC(=O)[C@@H](CC(C)C)NC(=O)[C@@H](Cc1ccccc1)NC(=O)[C@H](N)Cc1ccccc1)C(=O)O [Compound 46] |  |  | EC50 [1, 4]: 0.12 nM; Emax [1, 3]: 95%
CC(C)C[C@@H](NC(=O)[C@H](N)Cc1ccccc1)C(=O)N[C@H](CCCN)C(=O)N[C@H](CCCCNC(=O)[C@@H](CCCN)NC(=O)[C@@H](CC(C)C)NC(=O)[C@@H](Cc1ccccc1)NC(=O)[C@H](N)Cc1ccccc1)C(=O)O [Compound 47] |  |  | EC50 ([1]; mKOR EC50 (nM), R1.G1 cells): 0.05 nM; Emax [1, 5]: 91%
CC(C)C[C@@H](NC(=O)[C@@H](Cc1ccccc1)NC(=O)[C@H](N)Cc1ccccc1)C(=O)N[C@H](CCCN)C(=O)NCCCC[C@@H](NC(=O)[C@@H](CCCN)NC(=O)[C@@H](CC(C)C)NC(=O)[C@@H](Cc1ccccc1)NC(=O)[C@H](N)Cc1ccccc1)C(=O)O [Compound 48] (H-[dF][dF][dL][dOrn][dK]([dOrn-dL-dF-dF])-OH) |  |  | EC50 ([1]; mKOR EC50 (nM), R1.G1 cells): 0.34 nM; Emax [1, 5]: 85%
CC(C)C[C@@H](NC(=O)[C@@H](Cc1ccccc1)NC(=O)[C@H](N)Cc1ccccc1)C(=O)N[C@H](CCCNC(C)C)C(=O)NC1(C(=O)O)CCN(C(=O)[C@@H](CCCNC(C)C)NC(=O)[C@@H](CC(C)C)NC(=O)[C@@H](Cc2ccccc2)NC(=O)[C@H](N)Cc2ccccc2)CC1 [Compound 49] |  |  | Emax [1, 5]: 50%
CC(C)C[C@@H](NC(=O)[C@@H](Cc1ccccc1)NC(=O)[C@H](N)Cc1ccccc1)C(=O)N[C@H](CNC(=N)N)C(=O)NC1(C(=O)O)CCN(C(=O)[C@@H](CNC(=N)N)NC(=O)[C@@H](CC(C)C)NC(=O)[C@@H](Cc2ccccc2)NC(=O)[C@H](N)Cc2ccccc2)CC1 [Compound 50] (H-[dF][dF][dL][dAgp][Api]([dAgp-dL-dF-dF])-OH) |  |  | EC50 ([1]; mKOR EC50 (nM), R1.G1 cells): 56.7 nM; Emax [1, 5]: 77%
CC(C)C[C@@H](NC(=O)[C@@H](Cc1ccccc1)NC(=O)[C@H](N)Cc1ccccc1)C(=O)N[C@H](CCNC(=N)N)C(=O)NC1(C(=O)O)CCN(C(=O)[C@@H](CCNC(=N)N)NC(=O)[C@@H](CC(C)C)NC(=O)[C@@H](Cc2ccccc2)NC(=O)[C@H](N)Cc2ccccc2)CC1 [Compound 51, 1N,4N-bis-(D-Phe-D-Phe-D-Leu-D-Nar)-4amino-4carboxylic piperidine] (H-[dF][dF][dL][dAgb][Api]([dAgb-dL-dF-dF])-OH) |  |  | EC50 ([1]; mKOR EC50 (nM), R1.G1 cells): 95.8 nM; Emax [1, 5]: 60%
CC(C)C[C@@H](NC(=O)[C@@H](Cc1ccccc1)NC(=O)[C@H](N)Cc1ccccc1)C(=O)N[C@@H]1CCCCNC(=O)CNC(=O)[C@H](NC(=O)[C@@H](CC(C)C)NC(=O)[C@@H](Cc2ccccc2)NC(=O)[C@H](N)Cc2ccccc2)CCCCNC(=O)CNC1=O [Compound 52, D-Phe-D-Phe-D-Leu-(D-Lys-GlyLactam)2-D-Leu-D-Phe-D-Phe] (I: H-[dF][dF][dL][dK]G / II: H-[dF][dF][dL][dK]G; amide I:4-II:C, I:C-II:4 (inferred); N-terminus assumed) |  |  | Emax [1, 5]: 76%
